A word on the IC50: it is the concentration needed to halve the response being measured. The low end stands for greater potency, the high end for weaker potency. For orientation: inhibition means the drop in the measured response relative to a control, in per cent.

Test [1] is described as follows: DPPH· free radical scavenging assay. To be noted: for IC50: DPPH· scavenging, 0.2 mM DPPH· in DMSO, absorbance 515 nm. On the procedure:
DPPH^· assay is widely used to observe radical scavenging activity of various compounds and extracts. DPPH^· is stable N radical which is reduced to hydrazine during its reaction with hydrogen donors.
Initially, 0.2 mM DPPH^· solution was prepared using DMSO as the solvent. […] During reduction of DPPH^· solution by antiradical compound, absorption of DPPH^· was measured at 515 nm. The spectrophotometric data was acquired using BMG FLUOstar OPTIMA spectrophotometer (BMG Labtech, Durham, NC, USA) and the IC50 values were calculated.

In test [2] the test system is angiotensin converting enzyme (ACE). The experiment in a line: Angiotensin converting enzyme (ACE) inhibition assay. Conditions: 10 μM compounds dissolved in DMSO. The format is biochemical. On the procedure: ACE assay is based on ACE inhibitory activity of test samples. The enzyme activity was measured by production of hippuric acid from the substrate hippuryl-L-histidyl-L-leucine (HHL). ACE cleaves the substrate to expose a free N-terminus, which was fluorogenically labeled with o-phthaldialdehyde (OPA). The florescence signal was measured by using excitation of 350 nm and emission of 500 nm. ACE inhibition activity of samples was measured using the following equation: % inhibition = 100 − (Acontrol − Asample)/Acontrol × 100 (1) where A is the absorbance Equation (1).

A further test has as its target T1, HIV-1 protease (Human immunodeficiency virus type 1 group M subtype B, UniProt P04585).
T1 construct: HIV-1 protease enzyme (Sigma Aldrich); purchased Sigma Aldrich
In words: HIV-1 protease inhibition assay (fluorescent substrate). Type of test: biochemical. Conditions: 10 μM compounds dissolved in DMSO; for inhibition at 10 µM: read-out: % Enzyme Inhibition HIV-I protease. On the procedure:
HIV-1 protease inhibition was performed by using a previously described method. HIV protease fluorescent substrate and HIV-1 protease enzyme (Sigma Aldrich) were used to determine HIV inhibition capacity of sample. Three primary controls i.e., blank, sample and positive control were used. Reaction mixture of 200 µL comprised of five enzyme units (5U) of HIV-1 protease along with 0.5 pmol of enzyme substrate. After addition of both enzymes and substrates, test compounds were added in different concentrations. Reaction mixture was incubated at 37 °C which leads to generation of fluorescence signal by cleaving Tyr-Pro peptide bond of the substrate. Finally reaction mixture was heated for 5 minutes at 90 °C to stop the reaction. The mixture was centrifuged at 12,000 rpm for 3 min. and supernatant was used to measure the fluorescence signal. The enzyme inhibition was calculated using the Equation (1).

For the next test, the system named is Tyrosinase. The experiment in a line: Tyrosinase inhibition assay (L-DOPA substrate). Conditions: 10 μM compounds dissolved in DMSO. Type of test: biochemical. On the procedure:
Tyrosinase inhibition was calculated based on previously described methods using L-DOPA as the substrate. Tyrosinase inhibition depended upon the amount of dopachrome produced in the reaction mixture. Absorption was measured at 490 nm to calculate the amount of dopachrome produced. The assay was performed in 96-well clear polystyrene plates using FLUOstar OPTIMA plate reader. The tyrosinase inhibitory effect of sample was measured using the following the Equation (1).

Test [3] is described as follows: Ferric reducing ability of plasma (FRAP) assay. Conditions: for FRAP antioxidant capacity: 10 μM compounds dissolved in DMSO, Trolox equivalence, mean ± SD. From the text:
The FRAP assay uses antioxidants in a redox-linked colorimetric assay to reduce ferric tripyridyl triazine to ferrous form at low pH [20].
FRAP assay is based on ferric to ferrous ion reduction to test the electron donating capacity of antioxidants. The assay was modified by using the 96-well microplate reader with an injection port system. Briefly, the FRAP working reagent was made using acetate buffer, 2,4,6-Tris (2-pyridyl)-s-triazine solution and ferric chloride in the ratio 10:1:1. […] After 6 min reaction time, absorbance was measured at 593 nm. Trolox standards at different concentrations were used to calculate the antioxidant capacity as mmol Trolox equivalence per L.

A short description of test [4]: Oxygen radical absorbance capacity (ORAC) assay. Conditions: for ORAC antioxidant capacity: 1 μM compounds dissolved in DMSO, Trolox equivalence, mean ± SD. On the procedure:
ORAC assay is based on the free radical damage to a fluorescence probe measured by fluorescence intensity over the time. The fluorescein sodium salt was used as fluorescence probe and change in its intensity was estimated as the index of the degree of free radical damage. Assay was performed using method described elsewhere. Briefly, the standards and samples were prepared using 75 mM phosphate buffer (pH 7). As the peroxy radicals are generated from decomposition of 2,2'-azobis(2-amidino-propane) dihydrochloride (AAPH), the signal was quenched from fluorescein. However, in the presence of antioxidant samples the fluorescence signal can be stabilize which depends directly upon the antioxidant’s capacity to neutralize the free radical. Quadratic relation emerging from florescent area under the decaying curve was used to calculate antioxidant capacity as mmol Trolox equivalence per L.

Setting [5] is: DPPH assay, relative to curcumin.

Marks after values point to notes of the source that are not given here.

For `O=C1/C(=C(O)/C=C/c2ccccc2)CCC/C1=C\c1ccccc1` [Compound 2a], in test [1], the IC50 turned out to be 2860 µM. In addition, the “% Enzyme Inhibition ACE” value in test [2] is recorded as 19.69 ^g %. The inhibition at 10 µM at HIV-1 protease is 48.2%. Moreover, in the test on Tyrosinase, the “% Enzyme Inhibition Tyrosinase” value is listed as 46.1 ^i %. Besides, the FRAP antioxidant capacity in test [3] was 1.13 ± 0.4 ^g mmole TE/L. Further, in test [4], the ORAC antioxidant capacity is 0.12 ± 0.01 ^g mmole TE/L.
As to `COc1ccc(/C=C/C(O)=C2\CCC/C(=C\c3ccc(OC)cc3)C2=O)cc1` [Compound 2c], the “DPPH· scavenging capacity weaker than curcumin (fold)” value in test [1] (setting [5]) is recorded as ~ 5 fold. The same molecule had an IC50 in test [1] of 4070 µM. The “% Enzyme Inhibition ACE” value in test [2] is given as 4.01 ^g %. For the same molecule, the inhibition at 10 µM on HIV-1 protease worked out at 43.7%. In addition, the “% Enzyme Inhibition Tyrosinase” value in the test with Tyrosinase is given as 40.63 ^j %. The FRAP antioxidant capacity in test [3] is 1.32 ± 0.001 ^f mmole TE/L. For the same molecule, the ORAC antioxidant capacity in test [4] is 0.11 ± 0.01 ^g mmole TE/L.
In test [1], `COc1cc(/C=C/C(O)=C2\CCC/C(=C\c3ccc(O)c(OC)c3)C2=O)ccc1O` [Compound 2d] yielded an IC50 of 720 µM. Besides, the “% Enzyme Inhibition ACE” value in test [2] is reported as 84.59 ^ab %. Also, the inhibition at 10 µM at HIV-1 protease was 37.3%. The “% Enzyme Inhibition Tyrosinase” value with Tyrosinase was 56.84 ^h %. Moreover, the FRAP antioxidant capacity in test [3] is 5.35 ± 0.1 ^b mmole TE/L. Moreover, the ORAC antioxidant capacity in test [4] is 0.50 ± 0.02 ^ef mmole TE/L.
`O=C1/C(=C(O)/C=C/c2ccc(Cl)cc2)CCC/C1=C\c1ccc(Cl)cc1` [Compound 2f] returned an IC50 in test [1] of 710 µM. In addition, the “% Enzyme Inhibition ACE” value in test [2] is listed as “No ACE inhibition activity was detected”. Besides, the inhibition at 10 µM on HIV-1 protease worked out at 9.9%. The “% Enzyme Inhibition Tyrosinase” value in the test on Tyrosinase is recorded as 60.15 ^ef %. In test [3], the FRAP antioxidant capacity is 1.28 ± 0.04 ^fg mmole TE/L. In addition, the ORAC antioxidant capacity in test [4] was 0.49 ± 0.1 ^ef mmole TE/L.
`O=C1/C(=C(O)/C=C/c2ccc(O)cc2)CC/C1=C\c1ccc(O)cc1` [Compound 3b]: in test [1] (setting [5]), the “radical scavenging capacity higher than curcumin (fold)” value is recorded as “over 10 fold”. The IC50 in test [1] worked out at 60 µM. The “% Enzyme Inhibition ACE” value in test [2] is 90.55 ^ab %. The inhibition at 10 µM at HIV-1 protease stood at 41.1%. In test [3], the FRAP antioxidant capacity was 2.29 ± 0.1 ^e mmole TE/L. Further, the ORAC antioxidant capacity in test [4] is recorded as 0.49 ± 0.1 ^ef mmole TE/L.
With “(1E,6E)-1,7-bis(4-hydroxy-3-methoxyphenyl)-1,6-heptadiene-3,5-dione [Curcumin, reference compound]”, inhibition in test [1] was half-maximal at 860 µM (IC50). For the same molecule, the “% Enzyme Inhibition ACE” value in test [2] was 76.86 ^bc %. Moreover, the “% Enzyme Inhibition Tyrosinase” value in the test on Tyrosinase is 12.61 ^k %. For the same molecule, the FRAP antioxidant capacity in test [3] is listed as 5.01 ± 0.1 ^c mmole TE/L. Moreover, in test [4], the “ORAC value, peroxyl radical scavenging capacity” value is 5.01 mM TE/L and the ORAC antioxidant capacity is given as 1.89 ± 0.2 ^a mmole TE/L.
On to “(E)-2-(3,4-dimethoxybenzylidene)-5-((E)-3-(3,4-dimethoxyphenyl)acryloyl)cyclopentanone [Compound 3e]”, for which the “radical scavenging capacity higher than curcumin (fold)” value in test [1] (setting [5]) is on record as “over 10 fold”. The molecule also showed an IC50 in test [1] of 30 µM. In addition, the “% Enzyme Inhibition ACE” value in test [2] is 56.95 ^de %. Moreover, the “% Enzyme Inhibition HIV-I protease” value at HIV-1 protease was 44.5 ^cd %. Further, the FRAP antioxidant capacity in test [3] is 0.67 ± 0.02 ^j mmole TE/L. Further, in test [4], the ORAC antioxidant capacity is 0.69 ± 0.1 ^e mmole TE/L.
In turn, “(E)-2-(3,4-dimethoxybenzylidene)-6-((E)-3-(3,4-dimethoxyphenyl)acryloyl)cyclohexanone [Compound 2e]” gave an IC50 in test [1] of 2570 µM. Also, the “% Enzyme Inhibition ACE” value in test [2] was 36.56 ^f %. For the same molecule, the “% Enzyme Inhibition HIV-I protease” value on HIV-1 protease is 61.6 ^a %. Also, in test [3], the FRAP antioxidant capacity is 0.47 ± 0.1 ^k mmole TE/L. For the same molecule, the “FRAP value” in test [3] (10 µM concentration) is given as 0.47 mM TE/L. For the same molecule, in test [4], the ORAC antioxidant capacity was 0.60 ± 0.1^e mmole TE/L.
In test [1], “(E)-2-(4-hydroxybenzylidene)-6-((E)-3-(4-hydroxyphenyl)acryloyl)cyclohexanone [Compound 2b]” gave an IC50 of 2580 µM. Further, in test [2], the “% Enzyme Inhibition ACE” value is on record as 88.73 ^ab %. Further, the “% Enzyme Inhibition HIV-I protease” value at HIV-1 protease is recorded as 55.5 ^b %. The FRAP antioxidant capacity in test [3] is on record as 3.02 ± 0.02 ^d mmole TE/L. Besides, in test [4], the ORAC antioxidant capacity was 0.43 ± 0.1 ^f mmole TE/L.

For the origin of these results see paper PMC6270194 (Molecules, 2013).
